Data as given in PMC4832822, “Investigating the Influence of (Deoxy)fluorination on the Lipophilicity of Non‐UV‐Active Fluorinated Alkanols and Carbohydrates by a New log P Determination Method” (Angewandte Chemie (International Ed. in English), 2015).
Several values for one entry are separate records, joined by “and”; a condition that tells them apart may be missing. Identical values can stand only once. Like-named read-outs stand apart in the source and are kept apart here.

Legend:
[1] = log P determination by 19F NMR shake-flask method with internal fluorinated reference (octanol/water); conditions: for ΔlogP (exp. logP vs logP lit): Table SI12
[2] = milogP calculated using Molinspiration Cheminformatics; conditions: Table SI14
[3] = cited from earlier work
[4] = octanol/water, logP, 19F NMR, 25 °C, average value
[5] = method and temperature not provided, ref U.S. National Library of Medicine online database (chemidplus)
[6] = octanol/water, error (mean logP to three decimals), reference TFE (+0.36)
[7] = octanol/water, logP, single experiment, reference TFE (+0.36)
[8] = Average logP, 25 °C, reference TFE (+0.36)
[9] = error (mean logP to three decimals)
[10] = logP, octanol/water, 19F NMR, 25 °C, average value
[11] = logP, single experiment, reference TFE (+0.36)
[12] = octanol/water, Average logP, 25 °C, reference TFE (+0.36)
[13] = single experiment, reference TFE (+0.36)
[14] = octanol/water, Average logP, reference 4,4,4-trifluoro-1-butanol (TB, +0.91EXP)
[15] = octanol/water, error (mean logP to three decimals), reference TB (+0.91EXP)
[16] = octanol/water, logP, single experiment, reference 4,4,4-trifluoro-1-butanol (TB, +0.91EXP)
[17] = octanol/water, Average logP, 25 °C, reference FE (-0.75)
[18] = octanol/water, error (mean logP to three decimals), reference FE (-0.75)
[19] = single experiment, reference FE (-0.75)

SMILES | logP [1, 4] | ΔlogP (milogP vs logP exp) [2] | logP [1, 6] | logP [1, 7] | logP [1, 12] | further results
CC(C)(C)[C@H]1CC[C@H](O)[C@H](F)C1 (relative stereo) [compound 42] | 2.63 | +0.07 | – | – | – | –
CC(C)(C)[C@H]1CC[C@H](O)[C@@H](F)C1 (relative stereo) [compound 43] | 2.61 | – | – | – | – | –
CC(C)(C)[C@H]1CC[C@@H](O)[C@H](F)C1 (relative stereo) [compound 44] | 3.21 | -0.51 | – | – | – | –
CCCC(C)O (stereo not shown) [G, 2-PentOH, reference compound] | – | – | – | – | – | logP (lit) [3, 5]: +1.19
CC(C)(C)[C@H]1CC[C@H](O)CC1 [K, reference compound] | – | – | – | – | – | logP (lit) [3, 5]: +3.09
CC(C)(C)[C@H]1CC[C@@H](O)CC1 [L, reference compound] | – | – | – | – | – | logP (lit) [3, 5]: +3.02
Oc1ccccc1F [SI4, o-fluorophenol] | 1.7 | +0.13 | 1.7 | 1.7 | – | logP (lit) ([3]; method and temperature not provided, ref C. Hansch, A. Leo, Substituent constants, Wiley 1979): +1.64; logP (lit) ([3]; ref chemidplus database, Hansch, Leo 1979 and Fujita, Iwasa, Hansch 1964 (shake-flask, spectrophotometer, 25 ± 5 °C)): +1.71
OCC(F)(F)F [compound 3, 2,2,2-Trifluoroethanol] | – | +0.25 | – | – | – | –
OC(CF)CF [compound 4] | – | – | – | – | – | Average logP ([1]; 25 °C, reference TFE (+0.36)): -0.42; logP (physchem; [8]): -0.42; logP (physchem; [9]): -0.421; logP (physchem; [10]): -0.42; logP (physchem; [11]): -0.42
CC(O)C(F)(F)F (stereo not shown) [compound 6] | 0.7 | +0.27 | 0.715 | 0.712 | 0.71 | logP (lit) ([3]; ref chemidplus database, Dillingham et al. 1973 and Hansch, Leo 1979): +0.71; logP (lit) ([3]; shake-flask, 1H or 19F NMR, temperature not reported, ref N. Muller, J. Pharm. Sci. 1986): +0.70
OC(C(F)(F)F)C(F)(F)F [compound 7] | – | – | 1.69 | 1.69 | 1.69 | ΔlogP (exp. logP vs logP lit) [1]: +0.03; logP (lit) [3, 5]: +1.66
OCCC(F)F [compound 10] | – | +0.48 | 0.038 | 0.033 | 0.04 | –
CC(F)(F)CO [compound 11] | 0.11 | +0.59 | 0.11 | 0.113 | 0.11 | –
OCCC(F)(F)F [compound 12] | – | +0.47 | 0.414 | 0.413 | 0.41 | ΔlogP (exp. logP vs logP lit) [1]: +0.02; logP (lit) ([3]; ref chemidplus database and N. Muller 1986): +0.39
CC(C)(O)C(F)(F)F [compound 14] | – | +0.39 | 1.03 | 1.03 | 1.03 | –
CC(O)(C(F)(F)F)C(F)(F)F [compound 15] | – | – | – | – | – | logP (physchem; [9]): 2.08; logP (physchem; logP): 2.08
CC(O)CCF (stereo not shown) [compound 16] | – | – | – | – | – | logP (physchem; Average logP): 0.08; logP (physchem; [9]): 0.084; logP (physchem; logP): 0.077
CC(O)CC(F)F (stereo not shown) [compound 17] | 0.42 | +0.46 | 0.417 | 0.42 | 0.42 | –
CC(O)CC(F)(F)F (stereo not shown) [compound 18] | 0.71 | +0.53 | 0.721 | 0.725 | 0.72 | ΔlogP (exp. logP vs logP lit) [1]: +0.01
CC(O)C(F)(F)C(F)F (stereo not shown) [compound 19] | – | – | – | – | – | logP (physchem; Average logP): 1.05; logP (physchem; [9]): 1.05; logP (physchem; logP): 1.05
CC(O)C(F)(F)C(F)(F)F (stereo not shown) [compound 20] | – | – | – | – | – | logP (physchem; Average logP): 1.53; logP (physchem; [9]): 1.53; logP (physchem; logP): 1.53
OCCCCF [compound 21] | – | – | – | – | – | logP (physchem; [8]): 0.09; logP (physchem; error (mean logP to three decimals), reference TFE (+0.36)): 0.09; logP (physchem; logP): 0.092; logP (physchem; [10]): 0.09; logP (physchem; [11]): 0.09
CC(F)CCO (stereo not shown) [compound 22, 3-fluorobutan-1-ol] | – | – | 0.173 | 0.166 | 0.17 | –
OCCC(F)(F)C(F)(F)F [compound 24] | – | – | – | – | – | logP (physchem; Average logP): 1.3; logP (physchem; [9]): 1.3; logP (physchem; logP): 1.29
C[C@H](O)C[C@@H](C)F [compound 26] | – | +0.49 | 0.477 | 0.476 | 0.48 | logP [1, 13]: +0.476

SMILES | logP [1, 4] | ΔlogP (milogP vs logP exp) [2] | logP [1, 6] | logP [1, 7] | logP [1, 12] | further results
C[C@H](O)C[C@H](C)F [compound 27] | 0.57 | +0.40 | 0.569 | 0.57 | 0.57 | –
CC(O)CC(C)(F)F (stereo not shown) [compound 28] | – | +0.67 | 0.662 | 0.659 | 0.66 | –
CCCC(O)C(F)(F)F (stereo not shown) [compound 29, 1,1,1-trifluoropentan-2-ol] | – | – | 1.82 | 1.83 | 1.82 | –
OCCCCCF [compound 30, 5-fluoro-1-pentanol] | – | – | – | – | – | logP (physchem; Average logP): 0.52; logP (physchem; [9]): 0.524; logP (physchem; logP): 0.524
CC(F)CCCO (stereo not shown) [compound 31, 4-fluoropentan-1-ol] | – | – | 0.522 | 0.517 | 0.52 | –
CC(F)(F)CCCO [compound 32, 4,4-difluoropentan-1-ol] | – | – | 0.708 | 0.712 | 0.71 | logP [1, 13]: +0.712
CCCC(F)CO (stereo not shown) [compound 33, 2-fluoropentan-1-ol] | – | – | 0.868 | 0.872 | 0.87 | logP ([1]; multiple acquisitions of one sample (Table SI7), single acquisition, reference 2,2,2-trifluoroethanol): 0.5206 and 0.5160 and 0.5224 and 0.5294 and 0.5210 and 0.5213; logP ([1]; multiple reprocessing of one FID (Table SI8), single reprocessing): 0.5205 and 0.5167 and 0.5166 and 0.5215 and 0.5186; logP ([1]; octanol/water, logP Average, seven acquisitions (Table SI7)): 0.521; logP ([1]; octanol/water, logP Average, seven reprocessings (Table SI8)): 0.518; logP ([1]; octanol/water, logP, multiple acquisitions of one sample (Table SI7), single acquisition, reference 2,2,2-trifluoroethanol): 0.517; logP ([1]; octanol/water, logP, multiple reprocessing of one FID (Table SI8), single reprocessing): 0.513
OCCCC(F)(F)C(F)F [compound 34, 4,4,5,5-tetrafluoropentan-1-ol] | – | – | – | – | – | logP (physchem; Average logP): 0.97; logP (physchem; [9]): 0.974; logP (physchem; logP): 0.971
OCCCC(F)(F)C(F)(F)F [compound 36] | – | – | – | – | – | logP (physchem; Average logP): 1.72; logP (physchem; [9]): 1.72; logP (physchem; logP): 1.73
CC[C@H](O)C[C@H](F)CC [compound 37] | 1.58 | +0.40 | – | – | – | logP [1, 14]: 1.58; logP [1, 15]: 1.58; logP [1, 16]: 1.58
CC[C@H](O)C[C@@H](F)CC [compound 38] | 1.71 | +0.27 | – | – | – | logP [1, 14]: 1.71; logP [1, 15]: 1.71; logP [1, 16]: 1.69
OC[C@H](F)[C@@H](F)CO [compound 39] | – | +0.63 | – | – | – | logP [1, 17]: -1.01; logP [1, 18]: -1.01; logP [1, 19]: -1.006 and -1.012
OC[C@@H](F)[C@@H](F)CO [compound 40] | – | +0.59 | – | – | – | logP [1, 17]: -0.97; logP ([1]; octanol/water, Average logP, internal validation, reference -1.01EXP): -0.98; logP ([1]; octanol/water, error (mean logP to three decimals), internal validation, reference -1.01EXP): -0.98; logP [1, 18]: -0.968; logP ([1]; single experiment, internal validation, reference -1.01EXP): -0.981 and -0.984 and -0.975; logP [1, 19]: -0.957
OCC(F)(F)C(F)(F)CO [compound 41] | – | – | – | – | – | logP (physchem; Average logP): -0.11; logP (physchem; [9]): -0.109
CC(C)(C)C1CCC(O)CC1F (stereo not shown) [compound 45] | 2.23 | – | – | – | – | –
O=C[C@H](O)[C@@H](F)[C@@H](O)[C@H](O)CO [compound 46, 3-Fluoro-3-deoxy-D-galactose] | -2.47 | +0.32 | – | – | – | –
O=C[C@H](F)[C@@H](O)[C@@H](O)[C@H](O)CO [compound 47, 2-Fluoro-2-deoxy-D-galactose] | -2.37 | +0.44 | – | – | – | –
O=C[C@H](O)[C@@H](O)[C@H](O)[C@H](O)CF [compound 48, 6-Fluoro-6-deoxy-D-glucose] | -2.36 | +0.65 | – | – | – | –
O=C[C@H](F)[C@@H](O)[C@H](O)[C@H](O)CO [compound 49, 2-Fluoro-2-deoxy-D-glucose] | -2.21 | +0.28 | – | – | – | –
O=C[C@@H](F)[C@@H](O)[C@H](O)[C@H](O)CO [compound 50, 2-Fluoro-2-deoxy-D-mannose] | -2.11 | – | – | – | – | –
OC[C@H]1OC(O)C[C@@H](F)[C@@H]1O (stereo partly drawn) [compound 51, 2,3-Dideoxy-3-fluoro-D-glucopyranose] | -1.45 | – | – | – | – | –
OC[C@H]1OC(O)[C@H](F)[C@@H](F)[C@@H]1O (stereo partly drawn) [compound 52, 2,3-Dideoxy-2,3-difluoro-D-glucopyranose] | -1.11 | – | – | – | – | logP ([1]; octanol/water, log P units more lipophilic than Glc, relative to glucose): ~2.1; logP ([1]; octanol/water, logP, single experiment, reference FE (-0.75)): -1.11
OC[C@H]1OC(O)C(F)(F)C(F)(F)[C@H]1O (stereo partly drawn) [compound 53, 2,3-Dideoxy-2,2,3,3-tetrafluoro-D-threo-hexopyranose] | – | +0.07 | -0.576 | – | -0.58 | logP [1, 13]: -0.574 and -0.573 and -0.583
OC[C@H]1OC(O)C(F)(F)C(F)(F)[C@@H]1O (stereo partly drawn) [compound 54, 2,3-Dideoxy-2,2,3,3-tetrafluoro-D-erythro-hexopyranose] | – | – | – | -0.316 | -0.32 | –
